From ChEMBL document CHEMBL4118037, “Lactone Derivatives Produced by a Phaeoacremonium sp., an Endophytic Fungus from Senna spectabilis” (J Nat Prod, 2017)

Tests used:
[1] = tested on: Cladosporium sphaerospermum; test: Antifungal activity against Cladosporium sphaerospermum (Perzig) SPC 491 assessed as detection limit for activity by bioautographic method; format: functional
[2] = tested on: Cladosporium cladosporioides; test: Antifungal activity against Cladosporium cladosporioides (Fresen) Vries SPC 140 assessed as detection limit for activity by bioautographic method; format: functional
HeLa = test: Cytotoxicity against human HeLa cells assessed as reduction in cell viability by MTT assay; format: functional, cell-based

For NYSTATIN, the Activity [1] was 1 µg and the Activity [2] was 1 µg.
`CCCCCCC[C@H]1OC2=C(C(=O)O[C@@H]2C)[C@@H](O)[C@@]1(C)O` gave an IC50 (HeLa) of over 100 µM, an Activity [1] of 25 µg and an Activity [2] of 25 µg.
`CCCCCCC[C@H]1OC2=C(C(=O)O[C@@]2(C)O)[C@@H](O)[C@]1(C)O` showed an IC50 (HeLa) of over 100 µM.
With `CC[C@@]1(O)C(=O)OCc2c1cc1n(c2=O)Cc2cc3ccccc3nc2-1` [CAMPTOTHECIN] the IC50 (HeLa) was 0.12 µM.
For `CCCCCCC[C@H]1OC2=C(C(=O)O[C@@H]2C)[C@@H](O)[C@]1(C)O`, the IC50 (HeLa) was 100 µM, the Activity [1] was 5 µg and the Activity [2] was 5 µg.
`CCCCCCC[C@H]1OC2=C(C(=O)[C@@H](C)O2)[C@@H](O)[C@]1(C)O` showed an IC50 (HeLa) of 50 µM, an Activity [1] of 5 µg and an Activity [2] of 5 µg.
